Data set [1] in a line: Half-life in human. The format is ADME.
Data set [2] in a line: Half-life in iv dosed human. The format is ADME, organism-based. Particulars: in vivo.

The half-life is the time in which the quantity being followed falls by half. A lower half-life goes with fast loss.

In data set [1], `CCCC(=O)OCOC(=O)C1=C(C)NC(C)=C(C(=O)OC)C1c1cccc(Cl)c1Cl` (centres undefined) [CLEVIDIPINE] returned a half-life of roughly 1 min.
Compound `COC(=O)CCc1ccc(OCC(O)CNC(C)C)cc1` (centres undefined) [ESMOLOL] came in with a half-life in data set [2] of roughly 9 min.
Consider `CC1(C)OC[C@@H](COC(=O)CCc2ccc(OC[C@@H](O)CNCCNC(=O)N3CCOCC3)cc2)O1` [LANDIOLOL], for which the half-life in data set [1] was roughly 4 min.
Take `CN(C)CCc1c[nH]c2ccccc12` [N,N-DIMETHYLTRYPTAMINE]: the half-life in data set [1] was roughly 10 min.

The values are drawn from ChEMBL document CHEMBL6178003, “Reducing Cardiovascular Side Effects of DMT Using Beta-Blockers” (ACS Med Chem Lett, 2025).
